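Method: 48-hour compound exposure of cells in 96-well plates, five concentrations, linear interpolation of endpoints. GI50 = concentration required for 50% inhibition of growth.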 Calls of active or inactive are those of the source. Rule as the data show it: active = GI50 up to about 1.1 µM and inactive = higher.
Columns and labels:
Assay in all cases: NCI-60 cell line screen, 48 h
786-0 = system: 786-0
A498 = system: A498
A549 = system: A549
ACHN = system: ACHN
CAKI-1 = system: CAKI-1
CCRF-CEM = system: CCRF-CEM
COLO 205 = system: COLO 205
DLD-1 = system: DLD-1
DMS-114 = system: DMS-114
DMS-273 = system: DMS-273
EKVX = system: EKVX
HCT-116 = system: HCT-116
HCT-15 = system: HCT-15
HOP-62 = system: HOP-62
HOP-92 = system: HOP-92
HT-29 = system: HT-29
IGROV-1 = system: IGROV-1
K562 = system: K562
KM-20L2 = system: KM-20L2
KM12 = system: KM12
LXFL 529 = system: LXFL 529
M14 = system: M14
M19-MEL = system: M19-MEL
MOLT-4 = system: MOLT-4
Malme-3M = system: Malme-3M
NCI-H226 = system: NCI-H226
NCI-H23 = system: NCI-H23
NCI-H460 = system: NCI-H460
NCI-H522 = system: NCI-H522
OVCAR-3 = system: OVCAR-3
OVCAR-5 = system: OVCAR-5
OVCAR-8 = system: OVCAR-8
RPMI-8226 = system: RPMI-8226
RXF 631 = system: RXF 631
SF-268 = system: SF-268
SF-539 = system: SF-539
SK-MEL-28 = system: SK-MEL-28
SK-MEL-2 = system: SK-MEL-2
SK-MEL-5 = system: SK-MEL-5
SK-OV-3 = system: SK-OV-3
SN12C = system: SN12C
SNB-19 = system: SNB-19
SNB-75 = system: SNB-75
SNB-78 = system: SNB-78
SR = system: SR
SW-620 = system: SW-620
TK-10 = system: TK-10
U-251 = system: U-251
UACC-62 = system: UACC-62
XF498 = system: XF498

In the case of CC(=O)N/C(=C\c1ccc(/C=C(\NC(C)=O)c2nc3cc(Cl)ccc3[nH]2)cc1)c1nc2ccccc2[nH]1, the GI50 (786-0) is reported as > 100 µM (inactive), the GI50 (A498) is reported as > 100 µM (inactive) and the GI50 (A549) is reported as > 100 µM (inactive). The GI50 (ACHN) was > 100 µM (inactive), the GI50 (CAKI-1) was > 100 µM (inactive) and the GI50 (CCRF-CEM) was > 100 µM (inactive). For the same compound, the GI50 (COLO 205) was > 100 µM (inactive), the GI50 (DLD-1) was > 100 µM (inactive) and the GI50 (DMS-114) was > 100 µM (inactive). For the same compound, the GI50 (DMS-273) was > 100 µM (inactive), the GI50 (EKVX) was > 100 µM (inactive) and the GI50 (HCT-116) was > 100 µM (inactive). For the same compound, the GI50 (HCT-15) was over 100 µM, the GI50 (HOP-62) was > 100 µM (inactive) and the GI50 (HOP-92) was > 100 µM (inactive). The GI50 (HT-29) was > 100 µM (inactive), the GI50 (IGROV-1) was > 100 µM (inactive) and the GI50 (K562) was > 100 µM (inactive). For the same compound, the GI50 (KM-20L2) was > 100 µM (inactive), the GI50 (KM12) was > 100 µM (inactive) and the GI50 (LXFL 529) was > 100 µM (inactive). The GI50 (M14) was > 100 µM (inactive), the GI50 (M19-MEL) was > 100 µM (inactive) and the GI50 (MOLT-4) was > 100 µM (inactive). The GI50 (Malme-3M) was > 100 µM (inactive), the GI50 (NCI-H226) was > 100 µM (inactive) and the GI50 (NCI-H23) was > 100 µM (inactive). The GI50 (NCI-H460) was > 100 µM (inactive), the GI50 (NCI-H522) was > 100 µM (inactive) and the GI50 (OVCAR-3) was > 100 µM (inactive). The GI50 (OVCAR-5) was > 100 µM (inactive), the GI50 (OVCAR-8) was > 100 µM (inactive) and the GI50 (RPMI-8226) was > 100 µM (inactive). For the same compound, the GI50 (RXF 631) was > 100 µM (inactive), the GI50 (SF-268) was > 100 µM (inactive) and the GI50 (SF-539) was > 100 µM (inactive). The GI50 (SK-MEL-28) was > 100 µM (inactive), the GI50 (SK-MEL-2) was > 100 µM (inactive) and the GI50 (SK-MEL-5) was > 100 µM (inactive). For the same compound, the GI50 (SK-OV-3) was > 100 µM (inactive), the GI50 (SN12C) was > 100 µM (inactive) and the GI50 (SNB-19) was > 100 µM (inactive). For the same compound, the GI50 (SNB-75) was > 100 µM (inactive), the GI50 (SNB-78) was > 100 µM (inactive) and the GI50 (SR) was > 100 µM (inactive). For the same compound, the GI50 (SW-620) was > 100 µM (inactive), the GI50 (TK-10) was > 100 µM (inactive) and the GI50 (U-251) was > 100 µM (inactive). For the same compound, the GI50 (UACC-62) was > 100 µM (inactive) and the GI50 (XF498) was > 100 µM (inactive).

From ChEMBL document CHEMBL1201862, “PubChem BioAssay data set” (2004)
